Assay results as given in patent US20240368096A1 (Enanta Pharmaceuticals, Inc., priority 2022, published 2024).

The compounds below were run on HBV (assay: HBV infection in HepG2-NTCP cells (HBeAg AlphaLISA in supernatants)). Details: Hepatitis B virus, 192 h; HBV infection of HepG2-NTCP cells; HBeAg in supernatants at day 8 post infection; read-out: Cellular EC50.
Assay type: cell-based
Procedure: HepG2-NTCP A3 cells were maintained in DMEM media supplemented with GlutaMAX™ 10% fetal bovine serum, 1% penicillin/streptomycin, and 5 μg/mL puromycin at 37° C. in a humidified atmosphere with 5% CO2 in a collagen-coated tissue culture flask.
HepG2-NTCP cells were seeded in 384 well plate containing 16,000 cells/well two days prior to the infection. On the day of infection, compounds were 3-fold serially diluted in DMSO and pre-incubated with HepG2-NTCP cells for two hours before purified HBV addition. HBV infection was carried out at 2000 GE/cell with 4% PEG, and the final concentration of DMSO is 0.5%. On day one post infection, HBV-containing media was aspirated, cells were washed once with PBS and then maintained in 2.5% DMSO containing media for the remainder of the assay.
Supernatants from infected HepG2-NTCP cells were collected at day 8 post infection, and the amount of viral antigen HBeAg was measured by HBeAg AlphaLISA detection kit (PerkinElmer) following the manufacturer's recommended protocol. Irrespective of readout, compound concentrations that reduce viral product accumulation in supernatants by […] relative to DMSO controls (EC50) are reported. EC50 ranges are as follows: A<0.1 μM; B 0.1-1 μM; C>1 μM.

Structure (SMILES)	EC50
COc1cc2c(cc1-c1cccc(C(=O)O)c1)S(=O)(=O)N1Cc3ccccc3C1CN2c1ccccc1 (stereo not shown) [Example 16]	100 to 1000 nM
CN1[C@H](CC2CCC2)CN(c2ccccc2)c2cc(Cl)c(-c3ccc(F)c(C(=O)O)c3)cc2S1(=O)=O [Example 75]	100 to 1000 nM
CN1[C@H](C2CCCCC2)CN(c2ccccc2)c2cc(Cl)c(-c3ccc4oncc4c3)cc2S1(=O)=O [Example 202]	100 to 1000 nM
CC(C)C[C@@H]1CN(c2ccccc2)c2cc(Cl)c(-c3ccc(OC(F)(F)F)c(C(=O)O)c3)cc2S(=O)(=O)N1C [Example 163, (R)-5-(7-chloro-3-isobutyl-2-methyl-1,1-dioxido-5-phenyl-2,3,4,5-tetrahydrobenzo[f][1,2,5]thiadiazepin-8-yl)-2-(trifluoromethoxy)benzoic acid]	< 100 nM
CN1[C@H](C2CCCCC2)CN(c2ccc(C(F)(F)F)cc2F)c2cc(Cl)c(-c3ccc(F)c(C(=O)O)c3)cc2S1(=O)=O [Example 302]	100 to 1000 nM
COC[C@@H]1CN(c2ccccc2)c2cc(Cl)c(-c3ccc(F)c(C(=O)O)c3)cc2S(=O)(=O)N1C [Example 95]	100 to 1000 nM
O=C(O)c1cc(-c2cc3c(cc2Cl)N(c2ccccc2)C[C@@H](C2CCCCC2)NS3(=O)=O)ccc1F [Example 58]	100 to 1000 nM
O=C(O)c1cc(-c2cc3c(cc2F)N(c2ccccc2)CC2c4ccccc4CN2S3(=O)=O)ccc1F (stereo not shown) [Example 4]	100 to 1000 nM
CN1[C@H](C2CC(F)(F)C2)CN(c2ccccc2)c2cc(Cl)c(-c3cc(F)c(F)c(C(=O)O)c3)cc2S1(=O)=O [Example 31]	100 to 1000 nM
CN1[C@H](C2CCC2)CN(c2ccccc2)c2cc(Cl)c(-c3cccc(C(=O)C(=O)O)c3)cc2S1(=O)=O [Example 206]	< 100 nM
CN1[C@H](C2CCCCC2)CN(c2ccccc2)c2cc(Cl)c(-c3cccc(P(=O)(O)O)c3)cc2S1(=O)=O [Example 232, (R)-(3-(7-chloro-3-cyclohexyl-2-methyl-1,1-dioxido-5-phenyl-2,3,4,5-tetrahydrobenzo[f][1,2,5]thiadiazepin-8-yl)phenyl)phosphonic acid]	100 to 1000 nM
CC(C)OCCOC(=O)Nc1cc(-c2cc3c(cc2Cl)N(c2ccccc2)C[C@@H](C2CCCCC2)N(C)S3(=O)=O)sc1C(=O)O [Example 257]	< 100 nM
CN1[C@H](C2CCCCC2)CN(c2ccccc2)c2cc(Cl)c(-c3cc(NC(=O)OCC4CC(F)(F)C4)c(C(=O)O)s3)cc2S1(=O)=O [Example 253]	< 100 nM
CN1[C@H](C2CCCCC2)CN(c2ccccc2)c2cc(OC3CCN(C(=O)OC(C)(C)C)CC3)c(-c3ccc(F)c(C(=O)O)c3)cc2S1(=O)=O [Example 393, (R)-5-(7-((1-(tert-butoxycarbonyl)piperidin-4-yl)oxy)-3-cyclohexyl-2-methyl-1,1-dioxido-5-phenyl-2,3,4,5-tetrahydrobenzo[f][1,2,5]thiadiazepin-8-yl)-2-fluorobenzoic acid]	< 100 nM
CCC1CN(c2ccccc2)c2cc(Cl)c(-c3ccc(Cl)c(C(=O)O)c3)cc2S(=O)(=O)N1C (stereo not shown) [Example 46]	100 to 1000 nM
CC(C)C[C@@H]1CN(c2ccccc2)c2cc(Cl)c(-c3cccc(C4(C(=O)O)CC4)c3)cc2S(=O)(=O)N1C [Example 162]	> 1000 nM
CC(C)CS(=O)(=O)Nc1ccc(-c2cc3c(cc2Cl)N(c2ccccc2)C[C@@H](C2CCCCC2)N(C)S3(=O)=O)cc1C(=O)O [Example 267, (R)-5-(7-chloro-3-cyclohexyl-2-methyl-1,1-dioxido-5-phenyl-2,3,4,5-tetrahydrobenzo[f][1,2,5]thiadiazepin-8-yl)-2-((2-methylpropyl)sulfonamido)benzoic acid]	< 100 nM
CN1[C@H](C2CCCCC2)CN(c2cncc(C(F)(F)F)c2)c2cc(Cl)c(-c3ccc(F)c(C(=O)O)c3)cc2S1(=O)=O [Example 282]	100 to 1000 nM
CC(=O)Nc1ccc(-c2cc3c(cc2Cl)N(c2ccccc2)C[C@@H](C2CCCCC2)N(C)S3(=O)=O)cc1C(=O)O [Example 229]	< 100 nM
CCOc1ccc(-c2cc3c(cc2Cl)N(c2ccccc2)C[C@@H](C2CCCCC2)N(C)S3(=O)=O)cc1C(=O)O [Example 155, (R)-5-(7-chloro-3-cyclohexyl-2-methyl-1,1-dioxido-5-phenyl-2,3,4,5-tetrahydrobenzo[f][1,2,5]thiadiazepin-8-yl)-2-ethoxybenzoic acid]	100 to 1000 nM
CN1[C@H](CN=[N+]=[N-])CN(c2ccccc2)c2cc(Cl)c(-c3ccc(F)c(C(=O)O)c3)cc2S1(=O)=O [Example 99, (S)-5-(3-(azidomethyl)-7-chloro-2-methyl-1,1-dioxido-5-phenyl-2,3,4,5-tetrahydrobenzo[f][1,2,5]thiadiazepin-8-yl)-2-fluorobenzoic acid]	> 1000 nM
CN1[C@@H](CC2CC2)CN(c2ccccc2)c2cc(Cl)c(-c3cccc(C(=O)O)c3)cc2S1(=O)=O [Example 41]	> 1000 nM
CC(C)CC1CN(c2ccccc2)c2cc(C#N)c(-c3cccc(C(=O)O)c3)cc2S(=O)(=O)N1C (stereo not shown) [Example 14]	100 to 1000 nM

The next lines start with the values.

EC50	Structure (SMILES)
< 100 nM	COCCOc1cc2c(cc1-c1cc(NC(=O)OCCOC(C)C)c(C(=O)O)s1)S(=O)(=O)N(C)[C@H](C1CCCCC1)CN2c1ccccc1 [Example 518, (R)-5-(3-cyclohexyl-7-(2-methoxyethoxy)-2-methyl-1,1-dioxido-5-phenyl-2,3,4,5-tetrahydrobenzo[f][1,2,5]thiadiazepin-8-yl)-3-(((2-isopropoxyethoxy)carbonyl)amino)thiophene-2-carboxylic acid]
< 100 nM	CC(Oc1cc2c(cc1-c1ccc(F)c(C(=O)O)c1)S(=O)(=O)N(C)[C@H](C1CCCCC1)CN2c1ccccc1)c1ccsc1 (stereo partly shown) [Example 337]
< 100 nM	CN1[C@H](C2CCCCC2)CN(c2ccccc2)c2cc(OCc3ncco3)c(-c3ccc(F)c(C(=O)O)c3)cc2S1(=O)=O [Example 344]
< 100 nM	Cc1sccc1COc1cc2c(cc1-c1ccc(F)c(C(=O)O)c1)S(=O)(=O)N(C)[C@H](C1CCCCC1)CN2c1ccccc1 [Example 339]
100 to 1000 nM	CC(C)C[C@@H]1CN(c2ccccc2)c2cc(N(C)c3cccc(F)c3)c(-c3ccc(Cl)c(C(=O)O)c3)cc2S(=O)(=O)N1C [Example 555]
100 to 1000 nM	CC(C)C[C@@H]1CN(CC(C)C)c2cc(Oc3ccc(F)cc3)c(-c3ccc(F)c(C(=O)O)c3)cc2S(=O)(=O)N1C [Example 475, (R)-2-fluoro-5-(7-(4-fluorophenoxy)-3,5-diisobutyl-2-methyl-1,1-dioxido-2,3,4,5-tetrahydrobenzo[f][1,2,5]thiadiazepin-8-yl)benzoic acid]
< 100 nM	CN1[C@H](C2CCCCC2)CN(c2ccccc2)c2cc(OCc3ccc(OC(F)(F)F)cc3)c(-c3cc(F)c(C(=O)O)s3)cc2S1(=O)=O [Example 507]
100 to 1000 nM	CC(C)C[C@@H]1CN(c2ccccc2)c2cc(OCc3cccnc3)c(-c3ccc(F)c(C(=O)O)c3)cc2S(=O)(=O)N1C [Example 456]
> 1000 nM	CC(C)C[C@@H]1CN(c2ccccc2)c2cc(OC3CCN(C)CC3)c(-c3ccc(F)c(C(=O)O)c3)cc2S(=O)(=O)N1C [Example 448]
< 100 nM	CCCC[C@@H]1CN(c2ccccc2)c2cc(Nc3ccccc3F)c(-c3cc(F)c(F)c(C(=O)O)c3)cc2S(=O)(=O)N1C [Example 560, (R)-5-(3-butyl-7-((2-fluorophenyl)amino)-2-methyl-1,1-dioxido-5-phenyl-2,3,4,5-tetrahydrobenzo[f][1,2,5]thiadiazepin-8-yl)-2,3-difluorobenzoic acid]
< 100 nM	CN1[C@H](C2CCCCC2)CN(c2ccccc2)c2cc(OCc3ccoc3)c(-c3ccc(F)c(C(=O)O)c3)cc2S1(=O)=O [Example 333]
< 100 nM	CN1[C@H](C2CCCCC2)CN(c2ccccc2)c2cc(Oc3cc(F)cc(F)c3)c(-c3ccc(F)c(C(=O)O)c3)cc2S1(=O)=O [Example 405]
< 100 nM	CC(C)C[C@@H]1CN(c2ccccc2)c2cc(N3CCCCC3)c(-c3ccc(Cl)c(C(=O)O)c3)cc2S(=O)(=O)N1C [Example 552]
100 to 1000 nM	COCCN(C)c1cc2c(cc1-c1ccc(F)c(C(=O)O)c1)S(=O)(=O)N(C)[C@H](C1CCCCC1)CN2c1ccccc1 [Example 537]
100 to 1000 nM	CC(C)C[C@@H]1CN(c2ccccc2)c2cc(-c3ccc4ncoc4c3)c(-c3ccc(F)c(C(=O)O)c3)cc2S(=O)(=O)N1C [Example 579]
100 to 1000 nM	CN1[C@H](C2CCCCC2)CN(c2ccccc2)c2cc(C3CCOCC3)c(-c3ccc(F)c(C(=O)O)c3)cc2S1(=O)=O [Example 591]
100 to 1000 nM	CCCC[C@@H]1CN(c2ccccc2)c2cc(C)c(-c3ccc(F)c(C(=O)O)c3)cc2S(=O)(=O)N1C [Example 566, (R)-5-(3-butyl-2,7-dimethyl-1,1-dioxido-5-phenyl-2,3,4,5-tetrahydrobenzo[f][1,2,5]thiadiazepin-8-yl)-2-fluorobenzoic acid]
100 to 1000 nM	COc1ccc(N2C[C@@H](C3CCCCC3)N(C)S(=O)(=O)c3cc(-c4ccc(F)c(C(=O)O)c4)c(Cl)cc32)cc1 [Example 306, (R)-5-(7-chloro-3-cyclohexyl-5-(4-methoxyphenyl)-2-methyl-1,1-dioxido-2,3,4,5-tetrahydrobenzo[f][1,2,5]thiadiazepin-8-yl)-2-fluorobenzoic acid]
< 100 nM	CC(C)C[C@@H]1CN(c2ccccc2)c2cc(OC34CC5CC(CC(C5)C3)C4)c(-c3ccc(F)c(C(=O)O)c3)cc2S(=O)(=O)N1C [Example 441]
100 to 1000 nM	CCOc1ccc(N2C[C@@H](C3CCCCC3)N(C)S(=O)(=O)c3cc(-c4ccc(F)c(C(=O)O)c4)c(Cl)cc32)cc1 [Example 309]
